From ChEMBL document CHEMBL1156829 (Proc Natl Acad Sci U S A, 2008)

Legend:
[1] = NOVARTIS: Cytotoxicity against human hepatocellular carcinoma cell line (Huh7); assay type: toxicity, cell-based, Huh-7; conditions: Huh7 cells (hepatocellular carcinoma cell line)
[2] = test system: Plasmodium falciparum; assay: NOVARTIS: Inhibition of Plasmodium falciparum 3D7 (drug-susceptible) proliferation in erythrocyte-based infection assay; assay type: functional, organism-based; conditions: Plasmodium falciparum, 3D7
[3] = test system: Plasmodium falciparum; assay: NOVARTIS: Inhibition of Plasmodium falciparum W2 (drug-resistant) proliferation in erythrocyte-based infection assay; assay type: functional, organism-based; conditions: Plasmodium falciparum, W2; read-out: EC50

Row | Compound | CC50 [1] [nM] | EC50 [2] [nM] | EC50 [3] [nM]
1 | Cc1ccnc(NC(c2cccc(Cl)c2Cl)c2ccc3cccnc3c2O)c1 (centres undefined) | > 49000 | 152 | 144
2 | CN(C)Cc1c(O)ccc2oc(Cc3ccccc3)cc12 | 20100 | 219 | 59
3 | CCN1CCN(Cc2c(O)ccc3c(=O)c(Oc4cc(C)cc(C)c4)c(C(F)(F)F)oc23)CC1 | > 100000 | 3630 | 296
4 | Nc1c(Cl)c(Cl)nc(C(Cl)(Cl)Cl)c1Cl | > 100000 | 448 | 286
5 | CC(=O)Nc1nc(C)c(-c2csc(Nc3ccc(Cl)cc3)n2)s1 | 34400 | 140 | 97.8
6 | COC(=O)c1ccc(C2C3=C(O)CC(c4ccc(F)cc4)CC3=Nc3ccccc3N2C(=O)c2ccccc2)cc1 (centres undefined) | > 100000 | 332 | 290
7 | COc1ccc(C(c2ccc(N(C)C)cc2)c2ccc(N(C)C)cc2)cc1 | > 100000 | 353 | 277
8 | COc1cc(C(=O)N2N=C(c3c(-c4ccccc4)c4cc(Br)ccc4[nH]c3=O)CC2c2cccc([N+](=O)[O-])c2)cc(OC)c1OC (centres undefined) | > 100000 | 362 | 288
9 | C(=NNc1nc2ccccc2[nH]1)c1ccc2c(c1)OCO2 | > 100000 | 184 | 289
10 | CCOC(=O)C1=C(C)NC2=C(C(=O)CC(C)(C)C2)C1c1cc(I)sc1SC (centres undefined) | > 100000 | 798 | 287
11 | COc1cccc(C(=O)NCc2nnc(S)n2-c2ccc(Cl)c(Cl)c2)c1 | > 100000 | 275 | 273
12 | O=C(/C=C/c1c[nH]cn1)N1CCC(n2c(CC3CCCC3)nc3cccnc32)CC1 | > 10000 | > 1670 | 28.7
13 | Cc1ccn2c(NC(C)(C)CC(C)(C)C)c(-c3ccccc3OC(=O)N(C)C)nc2c1 | > 10000 | 576 | 28.5
14 | O=C(Nc1ccccc1Cl)c1cc2ccccc2cc1O | > 100000 | 327 | 298
15 | CCc1ccccc1NC(=O)C1c2ccccc2C(=O)N(CC(C)C)C1c1cccs1 (centres undefined) | > 97200 | 364 | 270
16 | COc1ccc(NC2=C(N3CCCCC3)C(=O)c3ccccc3C2=O)cc1 | 12600 | 33.1 | 35
17 | COc1ccc(C2CC(=O)C3=C(C2)NC(C)=C(C(=O)OC2CCCCC2)C3c2cccc(C)c2)cc1OC (centres undefined) | > 100000 | 837 | 281

Row | Compound | CC50 [1] [nM] | EC50 [2] [nM] | EC50 [3] [nM]
18 | CCOC(=O)c1cnc2ccc(Cl)cc2c1NCCCN(C)C | 48200 | 826 | 135
19 | CC1=CC(=Cc2sc3ccccc3[n+]2C)C=C(C)O1 | 8350 | 31.3 | 23.7
20 | COc1ccc(C2CC(=O)C3=C(C2)NC(C)=C(C(=O)OC(C)C)C3c2cccc(Br)c2)cc1OC (centres undefined) | 14700 | 234 | 41.6
21 | COc1cc2c(OC3OCC(OC)C(OC)C3O)c3c(c(-c4ccc5c(c4)OCO5)c2cc1OC)C(=O)OC3 (centres undefined) | > 10000 | 81.7 | 28.3
22 | O=C(Nc1ccc(C(=O)Nc2ccc(C3=NCCCN3)cc2)cc1)Nc1ccc(C2=NCCCN2)cc1 | > 7280 | 34.4 | 20.4
23 | O=C(NC1CCN(Cc2ccccc2)CC1)c1cc(-c2ccc(F)cc2)cc(-n2cnnn2)c1 | 45000 | 126 | 126
24 | COc1ccc(-c2cc(C(F)(F)F)n3ncc(C(=O)Nc4cccc(Cl)c4Cl)c3n2)cc1OC | > 100000 | 2610 | 275
25 | Oc1ccc(-c2ccc3c(c2)OCO3)cc1CNCC1CC2C=CC1C21CC1 (centres undefined) | > 100000 | 1110 | 274
26 | O=C(CSc1nc(-c2ccccc2Cl)ns1)Nc1ccc2c(c1)OCCO2 | > 100000 | 593 | 273
27 | CCN(CC)c1ccc(C=NNC(=O)c2ccc(Nc3nc(-c4ccccc4)cs3)cc2)c(O)c1 | 20100 | 151 | 54.8
28 | CC(C)(C)CC(C)(C)Nc1c(-c2ccccc2OC(=O)C2CCCC2)nc2ccccn12 | > 10000 | 2100 | 29.9
29 | O=C(c1ccc2nc(N3CCCCC3)sc2c1)N1CCN(Cc2ccc3c(c2)OCO3)CC1 | > 100000 | 407 | 298
30 | CC(C)(C)CC(C)(C)c1ccc(O)c(CN2CCN(CCC#N)CC2)c1 | > 100000 | 1290 | 272
31 | COc1ccc(-n2nc3c(c2NC(=O)C=Cc2cc(OC)c(OC)c(OC)c2)CSC3)cc1 | > 100000 | 392 | 294
32 | CCCCC(CC)C(=O)N1CCN(C(CC)c2nc3ccccc3c(=O)n2C)CC1 (centres undefined) | > 100000 | 374 | 294
33 | CN(C)CCN1CCN(c2cccc(-c3cccc4cccnc34)n2)CC1 | 18800 | 18 | 55.2
